The source of these data is ChEMBL document CHEMBL1134601, “Coumarins derivatives as dual inhibitors of acetylcholinesterase and monoamine oxidase” (J Med Chem, 2001).

The structures appear in SMILES notation.

The first experiment deals with Acetylcholinesterase (Electrophorus electricus) (UniProt O42275).
Acetylcholinesterase (Electrophorus electricus), sequence (O42275 24-633 limits assumed): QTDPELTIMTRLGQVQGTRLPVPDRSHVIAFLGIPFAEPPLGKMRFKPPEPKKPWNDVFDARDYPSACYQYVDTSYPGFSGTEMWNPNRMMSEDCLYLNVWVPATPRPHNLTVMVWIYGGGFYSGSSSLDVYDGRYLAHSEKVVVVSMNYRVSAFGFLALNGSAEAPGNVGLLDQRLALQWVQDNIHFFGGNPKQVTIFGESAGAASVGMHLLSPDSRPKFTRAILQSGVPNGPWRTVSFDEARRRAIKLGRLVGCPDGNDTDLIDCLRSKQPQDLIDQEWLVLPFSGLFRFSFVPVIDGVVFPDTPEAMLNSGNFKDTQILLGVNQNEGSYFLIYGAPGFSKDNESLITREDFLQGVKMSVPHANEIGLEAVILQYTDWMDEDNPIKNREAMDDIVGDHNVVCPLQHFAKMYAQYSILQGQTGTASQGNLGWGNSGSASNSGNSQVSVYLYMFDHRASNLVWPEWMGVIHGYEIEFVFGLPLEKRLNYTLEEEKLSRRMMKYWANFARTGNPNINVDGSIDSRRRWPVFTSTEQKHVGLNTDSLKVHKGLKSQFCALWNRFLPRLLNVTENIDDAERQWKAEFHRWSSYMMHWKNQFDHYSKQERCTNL
Description: Competitive inhibitory activity against acetylcholinesterase (AChE)
For the compound `Cc1cc(=O)c2cc(OCc3ccccc3)ccc2o1`, the pKic came out at 4.78.

`Cc1c(C)c2ccc(O)cc2oc1=O` had a pKic of 4.54. `COc1ccc2c(C)c(C)c(=O)oc2c1` showed a pKic of 4.8.

For a further experiment the target is unchanged. This is another data set of the same source.
Description: Non-competitive inhibitory activity against acetylcholinesterase (AChE)
`O=c1ccoc2ccc(OCc3ccccc3)cc12` displayed a pKinc of 4.29. The same measure, in the same setting: then `Cc1c(C)c2ccc(OCc3cccc(O)c3)cc2oc1=O`, with 4.83; and `Cc1ccccc1COc1ccc2c(C)c(C)c(=O)oc2c1`, with 4.68; and `Cc1cc(=O)c2cc(OCc3ccccc3)ccc2o1`, with 4.53. `Cc1c(C)c2ccc(OCc3cccc(N)c3)cc2oc1=O`: the pKinc was 4.74. The compound `Cc1c(C)c2ccc(O)cc2oc1=O` came in with a pKinc of 4. Still for that read-out and setting: as for `Cc1c(C)c2ccc(OCc3ccc(F)c(F)c3)cc2oc1=O`, the figure is 5.06; as for `Cc1c(C)c2ccc(OCCc3ccccc3)cc2oc1=O`, 4.8; as for `COc1ccc2c(C)c(C)c(=O)oc2c1`, 4.56. In turn, `Cc1c(C)c2ccc(OCc3cc(F)cc(F)c3)cc2oc1=O` returned a pKinc of 4.73. Regarding `Cc1c(C)c2ccc(OCc3ccccc3)cc2oc1=O`, the pKinc is 5.39.
